How the values were obtained:
Test in all cases: relative viability (nuclei count vs DMSO), 5 days (fraction); higher = more cells survive
[1] = compound: C1CNCCC1C2=CC(=NN2)C3=CC=NC=C3 + N=C(N)NC(=N)NCCc1ccccc1 [Phenformin] (partner 250 µM)
Summary of the method: (§1)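 Five library-drug doses in √10 steps were combined with a fixed anchor-drug dose, or a single drug was given alone, by pin tool to lung cancer cell lines in 1536-well plates the day after seeding. Nuclei were stained and counted after 5 days. Relative viability is the nuclei count in treated wells over that in vehicle wells, taken as the median of duplicate plates.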

Tanzisertib + Bortezomib = compound: O[C@H]1CC[C@H](Nc2ncc3nc(Nc4c(F)cc(F)cc4F)n([C@H]4CCOC4)c3n2)CC1 [Tanzisertib] + CC(C)C[C@H](NC(=O)[C@H](Cc1ccccc1)NC(=O)c1cnccn1)B(O)O [Bortezomib] (partner 0.002 µM)
Summary of the method: as §1

[2] = compound: C[C@@H](N)c1ccc(C(=O)Nc2ccnc3[nH]ccc23)cc1 + Cc1nc(Nc2ncc(C(=O)Nc3c(C)cccc3Cl)s2)cc(N2CCN(CCO)CC2)n1 [Dasatinib] (partner 0.075 µM)
Summary of the method: as §1

[3] = compound: C1CNCCC1C2=CC(=NN2)C3=CC=NC=C3 + C[C@@H](Oc1cc(-c2cnn(C3CCNCC3)c2)cnc1N)c1c(Cl)ccc(F)c1Cl [Crizotinib] (partner 1 µM)
Summary of the method: as §1

Cell Line | relative viability ([1]; first compound 0.08 µM) | relative viability ([1]; first compound 0.8 µM) | relative viability ([1]; first compound 2.53 µM) | relative viability ([1]; first compound 8 µM) | relative viability (Tanzisertib + Bortezomib; first compound 0.08 µM) | relative viability (Tanzisertib + Bortezomib; first compound 0.253 µM) | relative viability (Tanzisertib + Bortezomib; first compound 0.8 µM) | relative viability (Tanzisertib + Bortezomib; first compound 2.53 µM) | relative viability (Tanzisertib + Bortezomib; first compound 8 µM) | relative viability ([2]; first compound 0.04 µM) | relative viability ([2]; first compound 0.1265 µM) | relative viability ([2]; first compound 0.4 µM) | relative viability ([2]; first compound 1.265 µM) | relative viability ([2]; first compound 4 µM) | relative viability ([3]; first compound 0.08 µM) | relative viability ([3]; first compound 0.8 µM) | relative viability ([3]; first compound 2.53 µM) | relative viability ([3]; first compound 8 µM)
201T | 0.434 | 0.464 | 0.461 | 0.415 | 1.08 | 1.17 | 1.1 | 1.12 | 1.08 | 0.667 | 0.635 | 0.674 | 0.738 | 0.808 | 1.01 | 1.01 | 1.02 | 0.991
A549 | 0.107 | 0.153 | 0.199 | 0.156 | – | – | – | – | – | – | – | – | – | – | 0.784 | 0.849 | 0.857 | 0.797
A-427 | 0.375 | 0.38 | 0.323 | 0.299 | 1.09 | 0.938 | 1.01 | 0.96 | 0.927 | 0.483 | 0.666 | 0.707 | – | 0.506 | 0.874 | 0.93 | 0.944 | 0.846
ABC-1 | 0.244 | 0.195 | 0.259 | 0.257 | 0.292 | 0.346 | 0.268 | 0.356 | 0.228 | 0.577 | 0.552 | 0.648 | 0.507 | 0.445 | 0.988 | 1.12 | 1.04 | 1.18
BEN | 0.312 | 0.172 | 0.243 | 0.271 | 0.944 | 0.954 | 0.781 | 0.85 | 0.729 | 0.245 | 0.252 | 0.396 | 0.319 | 0.265 | 0.644 | 0.87 | 0.878 | 0.823
CAL-12T | 0.598 | 0.663 | 0.654 | 0.616 | 1.04 | 1.2 | 1.18 | 1.01 | 0.825 | 0.52 | 0.524 | 0.461 | 0.316 | 0.338 | 0.473 | 0.74 | 0.716 | 0.774
COR-L23 | 0.429 | 0.465 | 0.469 | 0.431 | 1.13 | 0.982 | 0.975 | 1.11 | 1.04 | 0.44 | 0.511 | 0.466 | 0.424 | 0.266 | 0.651 | 0.615 | 0.719 | 0.695
COR-L 105 | 0.541 | 0.419 | 0.508 | 0.528 | 0.818 | 0.708 | 0.99 | 0.877 | 0.482 | 0.247 | 0.317 | 0.372 | 0.241 | 0.216 | 0.649 | 0.982 | 0.799 | 0.906
Calu-6 | – | – | – | – | 1.02 | 0.993 | 1.03 | 1.06 | 1.05 | – | – | – | – | – | 0.838 | 0.91 | 0.833 | 0.814
ChaGo-K-1 | 0.458 | 0.527 | 0.462 | 0.462 | 0.915 | 1.21 | 1.07 | 0.934 | 0.916 | 0.475 | 0.554 | 0.541 | 0.54 | 0.42 | 0.926 | 1.15 | 1.08 | 1.09
EBC-1 | – | – | – | – | 0.638 | 0.609 | 0.503 | 0.632 | 0.374 | – | – | – | – | – | 0.202 | 0.219 | 0.233 | 0.192
EKVX | 0.269 | 0.209 | 0.255 | 0.209 | 1.1 | 0.996 | 1.02 | 0.965 | 0.683 | 0.624 | 0.533 | 0.561 | 0.248 | 0.455 | 1.05 | 0.807 | 0.956 | 0.925
EMC-BAC-2 | 0.499 | 0.609 | 0.661 | 0.552 | 1.19 | 1.14 | 1.13 | 1.05 | 1.06 | 0.263 | 0.337 | 0.314 | 0.266 | 0.315 | 0.705 | 0.772 | 0.751 | 0.793
EPLC-272H | 0.317 | 0.299 | 0.35 | 0.396 | 1.04 | 0.949 | 0.876 | 0.943 | 1.04 | 0.43 | 0.278 | 0.32 | 0.211 | 0.182 | 0.922 | 0.937 | 0.91 | 0.867
H3255 | 0.366 | 0.323 | 0.429 | 0.434 | 0.829 | 0.796 | 0.819 | 0.845 | 0.427 | 0.344 | 0.432 | 0.519 | 0.331 | 0.4 | 0.891 | 0.816 | 1.02 | 0.609
HARA | 0.516 | 0.403 | 0.43 | 0.491 | 1.22 | 1.16 | 1.18 | 1.17 | 1.18 | – | 0.287 | 0.225 | – | 0.237 | 1.05 | 1.08 | 1.05 | 1.03
HCC-15 | 0.401 | 0.54 | 0.494 | 0.469 | 1.25 | 1.08 | 1.09 | 1.01 | 1 | 0.633 | 0.574 | 0.603 | – | 0.442 | 0.805 | 0.928 | 0.839 | 0.779
HCC-44 | 0.31 | 0.194 | 0.276 | 0.322 | 0.934 | 0.938 | 0.912 | 0.936 | 0.999 | – | – | – | – | – | 0.889 | 0.908 | 0.842 | 0.839
HCC-78 | 0.695 | 0.56 | 0.68 | 0.719 | 0.485 | 0.436 | 0.548 | 0.416 | 0.62 | 0.556 | 0.376 | 0.51 | 0.388 | 0.614 | 0.369 | – | 0.399 | 0.381
HCC-366 | 0.653 | 0.656 | 0.618 | 0.659 | 1.08 | 1.03 | 1.1 | 0.995 | 1.01 | 0.544 | 0.621 | 0.483 | – | 0.508 | 0.462 | 0.559 | 0.551 | 0.536
